Article PMC8222713, “Variation of Two S3b Residues in KV4.1–4.3 Channels Underlies Their Different Modulations by Spider Toxin κ-LhTx-1” (Frontiers in Pharmacology, 2021)
Where a SMILES comes first, the peptide text is derived from it. Bridges are numbered along the chain shown (N, C = ends).

Key:
[1] = system: KV4.2/T282P mutant (T280P in text); test: Whole-cell patch clamp, KV4.2/T282P (text: KV4.2/T280P) (with hKChIP1) in CHO-K1 cells; type: cell-based, rat
Method: (§1) The cDNA of hKV1.1, hKV1.3, rKV1.4, hKV1.5, rKV2.1, hKV3.1–3.4, mKV4.1, rKV4.2, and rKV4.3 were subcloned in the eukaryotic expression vector pCDNA3.1 or pCMV-blank. Channel mutants were made by a site-directed mutation method. Briefly, a pair of oppositely directed primers with 15 bp overlap at their 5′ ends and the designed mutation site were used to amplify the parental channel plasmid, then the PCR mix was treated with DpnI to remove the template. 10 μL digestion mix was directly used to transform 100 μL DH5α chemical competent cells. The correct mutation made by this procedure was finally confirmed by DNA sequencing. CHO-K1 cells (ATCC® CCL-61™) were grown in DMEM-F12 mixed medium (1:1) supplemented with 10% FBS and maintained in standard conditions (saturated humidity, 37°C, 5% CO2). Channel plasmid was co-transfected with pEGFP-N1 (encodes the green fluoresence protein) into CHO-K1 cells using lipofectamine 2000 following the manufacturer’s instructions. 4–6 h after transfection, cells were seeded onto poly-lysine (PLL) coated coverslips, and 24–36 h later, transfected cells were ready for patch-clamp analysis. It should be note that KV4.2 and its mutants were also co-expressed with hKChIP1 to promote their functional expressions.
Whole-cell patch clamp recording was performed in an electrophysiology platform equipped with MultiClamp 700B amplifier and Axon Digidata 1550 AD/DA convertor (Axon Instruments, Irvine, CA, United States). Data were acquired using the pClamp software (Axon Instruments, Irvine, CA, United States). All experiments were performed at room temperature. The bath solution contains (in mM): 140 NaCl, 5 KCl, 1 MgCl2, 2 CaCl2, 10 glucose, and 10 HEPES (pH = 7.3). The pipette solution contains (in mM): 140 KCl, 2.5 MgCl2, 11 EGTA, and 10 HEPES (pH = 7.3). Series resistance was kept below 10 MΩ and compensated to 80%. The concentration–response curves were fitted by a Hill logistic equation to estimate the potency (IC50) of the toxin. The whole cell conductance (G) at each depolarizing voltage (V) was determined using the equation: G = I/(V−Vrev), where I and Vrev represents the current amplitude and the reversal potential, respectively. In the present study, Vrev for K^+ current is determined to be −85.61 mV using the Nernst equation. G-V curve was obtained by plotting the normalized G as a function of V and fitted by the Boltzmann equation: y = 1/{1 + exp [(Va−V)/K]}, in which Va, V, and K represents half-maximum activation voltage, test voltage and slope factor, respectively. The steady-state fast inactivation of KV4 channels was measured using a classical two-pulses protocol: cell was held at −120 mV, and a train of conditional voltages (−120–40 mV, in 10 mV increment, 1,000 ms) were applied to induce channel inactivation, followed by a +60 mV test pulse (300 ms) to assess the proportion of non-inactivated channels; the sweep interval was set to 10 s. […] Gating currents of KV4.1–4.3 channels were measured as previously reported ([Tilley et al., 2019]). […]
(§2) Data were presented as MEAN ± SEM, n represents the number of separate experimental cells. Data were analyzed using the software Clampfit 10.5 (Axon Instruments, Irvine, CA, United States), Graphpad Prism 5.01 (GraphPad Software, La Jolla, CA, United States) and Excel 2010 (Microsoft Corporation, Redmond, WA, United States). […]

KV4.2/D281K mutant = test: Whole-cell patch clamp, KV4.2/D281K (with hKChIP1) in CHO-K1 cells; type: cell-based, rat
Method: as §1
Whole-cell patch clamp recording was performed in an electrophysiology platform equipped with MultiClamp 700B amplifier and Axon Digidata 1550 AD/DA convertor (Axon Instruments, Irvine, CA, United States). Data were acquired using the pClamp software (Axon Instruments, Irvine, CA, United States). All experiments were performed at room temperature. The bath solution contains (in mM): 140 NaCl, 5 KCl, 1 MgCl2, 2 CaCl2, 10 glucose, and 10 HEPES (pH = 7.3). The pipette solution contains (in mM): 140 KCl, 2.5 MgCl2, 11 EGTA, and 10 HEPES (pH = 7.3). Series resistance was kept below 10 MΩ and compensated to 80%. The concentration–response curves were fitted by a Hill logistic equation to estimate the potency (IC50) of the toxin. The whole cell conductance (G) at each depolarizing voltage (V) was determined using the equation: G = I/(V−Vrev), where I and Vrev represents the current amplitude and the reversal potential, respectively. In the present study, Vrev for K^+ current is determined to be −85.61 mV using the Nernst equation. G-V curve was obtained by plotting the normalized G as a function of V and fitted by the Boltzmann equation: y = 1/{1 + exp [(Va−V)/K]}, in which Va, V, and K represents half-maximum activation voltage, test voltage and slope factor, respectively. The steady-state fast inactivation of KV4 channels was measured using a classical two-pulses protocol: cell was held at −120 mV, and a train of conditional voltages (−120–40 mV, in 10 mV increment, 1,000 ms) were applied to induce channel inactivation, followed by a +60 mV test pulse (300 ms) to assess the proportion of non-inactivated channels; the sweep interval was set to 10 s. Currents at the test pulse (I) were normalized to the maximum value (Imax) and plotted as a function of the conditional voltage (V), the curve was fitted by the Boltzmann equation: I/Imax = A + (1−A)/{1 + exp [(V−Vh)/K]}, where Vh is the half-maximum inactivation voltage, A represents the minimum channel availability, and K is the slope factor. Gating currents of KV4.1–4.3 channels were measured as previously reported ([Tilley et al., 2019]). Briefly, the ionic pore currents were abolished by replacing K^+ with NMDG^+ in the pipette solution, and 10 µM Cs^+ was present in the bath solution to occupy the selectivity filter of KV channels to prevent decay of the gating currents during recording.
as §2

KV3.1 channel (hKV3.1) = test: Whole-cell patch clamp selectivity, KV3.1; type: cell-based, human; conditions: KV3.1, 10 µM, n = 5
Method: (§3) The cDNA of hKV1.1, hKV1.3, rKV1.4, hKV1.5, rKV2.1, hKV3.1–3.4, mKV4.1, rKV4.2, and rKV4.3 were subcloned in the eukaryotic expression vector pCDNA3.1 or pCMV-blank. Channel mutants were made by a site-directed mutation method. Briefly, a pair of oppositely directed primers with 15 bp overlap at their 5′ ends and the designed mutation site were used to amplify the parental channel plasmid, then the PCR mix was treated with DpnI to remove the template. 10 μL digestion mix was directly used to transform 100 μL DH5α chemical competent cells. The correct mutation made by this procedure was finally confirmed by DNA sequencing. […] 4–6 h after transfection, cells were seeded onto poly-lysine (PLL) coated coverslips, and 24–36 h later, transfected cells were ready for patch-clamp analysis. […]
(§4) Whole-cell patch clamp recording was performed in an electrophysiology platform equipped with MultiClamp 700B amplifier and Axon Digidata 1550 AD/DA convertor (Axon Instruments, Irvine, CA, United States). […] The whole cell conductance (G) at each depolarizing voltage (V) was determined using the equation: G = I/(V−Vrev), where I and Vrev represents the current amplitude and the reversal potential, respectively. In the present study, Vrev for K^+ current is determined to be −85.61 mV using the Nernst equation. […] Gating currents of KV4.1–4.3 channels were measured as previously reported ([Tilley et al., 2019]). […]

[2] = system: KV4.2 channel gating currents; test: Gating current recording, KV4.2; type: cell-based, rat
Method: as §3, §4

[3] = 10 μM κ-LhTx-1, KV4.2/T282P, G-V, mean ± SEM, n = 5
[4] = 10 μM κ-LhTx-1, KV4.2/T282P, two-pulse protocol, mean ± SEM, n = 5
[5] = 10 μM κ-LhTx-1, G-V, mean ± SEM, n = 6
[6] = 10 μM κ-LhTx-1, two-pulse protocol, mean ± SEM, n = 6

CC[C@H](C)[C@@H]1NC(=O)[C@H](CCC(N)=O)NC(=O)[C@@H]2CSSC[C@@H]3NC(=O)[C@H](CC(C)C)NC(=O)[C@H](CC(N)=O)NC(=O)[C@H](CCSC)NC(=O)[C@H](Cc4c[nH]c5ccccc45)NC(=O)[C@H](CO)NC(=O)[C@H](C)NC(=O)[C@@H](NC(=O)[C@H](CCC(=O)O)NC(=O)[C@H](CCC(N)=O)NC(=O)[C@H](C)NC(=O)[C@H](CC(=O)O)NC(=O)[C@@H](N)CCC(=O)O)CSSC[C@H](NC(=O)[C@H](CSSC[C@@H](C(=O)N[C@@H](CCCCN)C(=O)N[C@@H](Cc4ccc(O)cc4)C(=O)N[C@@H](CCCCN)C(=O)N[C@@H](CC(C)C)C(N)=O)NC(=O)[C@H](Cc4c[nH]c5ccccc45)NC1=O)NC(=O)[C@H](CCCCN)NC(=O)[C@H](CCCCN)NC(=O)[C@H](CCC(=O)O)NC(=O)CNC3=O)C(=O)N[C@@H](CCC(=O)O)C(=O)NCC(=O)N[C@@H](Cc1ccc(O)cc1)C(=O)N[C@@H](C(C)C)C(=O)N2 [κ-LhTx-1] (H-EDAQECASWMNLCGEKKCCEGYVCQIWCKYKL-NH2; disulfide 6-19, 13-24, 18-28 (inferred); N-terminus and C-terminus assumed)
Va (steady-state activation) [1, 3]: 16.93 ± 2.90 mV | k, slope factor (steady-state activation) [1, 3]: 25.61 ± 0.68 mV | Vh (steady-state inactivation) [1, 4]: -71.72 ± 3.71 mV | k, slope factor (steady-state inactivation) [1, 4]: 5.86 ± 0.21 mV | toxin inhibition ([1]; KV4.2/T280P, 10 μM, all voltages, n = 5–6): resistant to toxin inhibition at all voltages | Va (steady-state activation) (KV4.2/D281K mutant; [5]): 61.96 ± 1.96 mV | k, slope factor (steady-state activation) (KV4.2/D281K mutant; [5]): 18.73 ± 0.70 mV | Vh (steady-state inactivation) (KV4.2/D281K mutant; [6]): -27.43 ± 2.53 mV | k, slope factor (steady-state inactivation) (KV4.2/D281K mutant; [6]): 15.24 ± 1.42 mV | voltage-dependence of inhibition vs parental KV4.2 (KV4.2/D281K mutant; 10 μM, still greater than in KV4.1): much less voltage-dependence | ∆Va (steady-state activation) (KV4.2/D281K mutant; Va shift by 10 μM κ-LhTx-1 vs control, mean ± SEM): 68.10 ± 2.92 mV | ∆Vh (steady-state inactivation) (KV4.2/D281K mutant; Vh shift by 10 μM κ-LhTx-1 vs control, mean ± SEM): 33.23 ± 2.95 mV | effect on currents (KV3.1 channel (hKV3.1)): did not remarkably affect the currents | inhibition of gating charge (Q) movement, 500 nM vs 10 µM ([2]; KV4.2, holding −100 mV, 20 ms to +30 mV, n = 5–6): inhibited essentially the same proportion of gating charge movement | gating current inhibition ([2]; KV4.2, n = 5–6): inhibited the gating currents
